Experimental data reported in patent publication US20250188113A1, “HIGH PURITY NON-ANIMAL DERIVED TUDCA” (SANDHILL ONE, LLC, priority 2021, published 2025).

Columns and labels:
[1] = Crystallinity of Pattern L upon drying (XRPD); type: physicochemical; settings: dried in a 50° C. oven under −29.5 in Hg for 3 h
Experimental: Pattern L was prepared by the slurry method. In this experiment, 205.4 mg of solid commercial-grade plant derived TUDCA was mixed with 2.2 mL of IPAc:MeOH (7.3:2.9 vol.) in a 4 mL vial at 50° C. The mixture was sonicated for 1 h and stirred for 15 min at 400 rpm, after which it was filtered and analyzed by XRPD. […] As this pattern was a possible hydrate, it was placed in a humidity chamber at 55% RH to see if the crystallinity would increase. The yield was 114.6 mg […].

[2] = DVS mass change (moisture sorption); type: physicochemical

SMILES | DVS mass change 5-95% RH (wt. %) [2] [wt. %] | other results
C[C@H](CCC(=O)NCCS(=O)(=O)O)[C@H]1CC[C@H]2[C@@H]3[C@@H](O)C[C@@H]4C[C@H](O)CC[C@]4(C)[C@H]3CC[C@]12C [Pattern L, Tauroursodeoxycholic acid] |  | Crystallinity upon drying [1]: decrease
C[C@H](CCC(=O)NCCS(=O)(=O)O)[C@H]1CC[C@H]2[C@@H]3[C@@H](O)C[C@@H]4C[C@H](O)CC[C@]4(C)[C@H]3CC[C@]12C [Pattern A, Tauroursodeoxycholic acid] |  | DVS mass change 2-95% RH (wt. %) ([2]; 2-95% RH): 0.96 wt. %
CC(C)(C)N.C[C@H](CCC(=O)O)[C@H]1CC[C@H]2[C@@H]3C(=O)C[C@@H]4CC(=O)CC[C@]4(C)[C@H]3CC[C@]12C [tert-Butylamine salt, tert-butylamine salt of 3,7-DKCA] | 10.89 | 
CC(C)NC(C)C.C[C@H](CCC(=O)O)[C@H]1CC[C@H]2[C@@H]3C(=O)C[C@@H]4CC(=O)CC[C@]4(C)[C@H]3CC[C@]12C [Diisopropylamine salt, diisopropylamine salt of 3,7-DKCA] | 2.53 | 
C[C@H](CCC(=O)O)[C@H]1CC[C@H]2[C@@H]3C(=O)C[C@@H]4CC(=O)CC[C@]4(C)[C@H]3CC[C@]12C.NCCN [Ethylenediamine salt, ethylenediamine salt of 3,7-DKCA] | 19.60 | 
CC(CCC(=O)NCCS(=O)(=O)O)C1CCC2C3C(O)CC4CC(O)CCC4(C)C3CCC12C.N=C(N)NCCCC(N)C(=O)O [Pattern 1-A (L-arginine), L-arginine TUDCA] |  | DVS mass change 2-80% RH (wt. %) ([2]; 2-80% RH): 2.91 wt. %
